In US20230321126A1 (priority 2020, published 2023):

Assays:
cathepsin L = experiment: Cathepsin L expression in A549 cells (Western blot); assay type: cell-based, human; conditions: 24 h
Experimental: Western blot analysis: A549 cells were treated with indicated concentrations of selected polyphenols and lysed using RIPA lysis buffer (Sigma, St. Louis, MO) supplemented with 1× Complete protease inhibitors (Roche Applied Science, Indianapolis, IN). The protein concentration was measured by the Dc protein assay (Bio-Rad, Hercules, CA). Proteins (50 μg/well) were separated on 8-16% gradient SDS-PAGE gels and transferred to a PVDF membrane. Specific proteins were detected with commercially available human anti-cathepsin L, anti-TMPRSS2, and anti-ACE2 monoclonal antibodies, all at 1:200 dilution, and anti-β-actin antibody as a loading control at 1:1000 dilution. Images were captured with Azure™ cSeries digital imaging system (Azure Biosystems, Dublin, CA) with auto-exposure settings. Densitometry was performed with NIH ImageJ software.
Cathepsin L expression: Expression of cathepsin L in cells was performed using Western blot. […] Next, cells were washed with 1×PBS, lysed, and processed according to procedure described below.
Western blot: A495 cells were lysed with lysis buffer [R IPA buffer plus 1× Protease Inhibitor (ThermoFisher Scientific, Waltham, MA)]. The protein estimation was performed with Dc Protein Assay (Bio-Rad, Hercules, CA). A 45 μg/well of protein was separated on 8-16% gradient SDS-PAGE gels and transferred to a PVDF membrane. […]

hACE2 [1] = target: T1, hACE2 (Homo sapiens, UniProt Q9BYF1); conditions: Jena et al.; cited from earlier work
hACE2 [2] = target: T1, hACE2; experiment: ACE2 binding assay (ACE2 Inhibitor Screening Assay Kit); design: purchased BPS Bioscience
[3] = system: SARS-CoV-2 spike protein pseudo-typed virions; assay type: cell-based
[4] = target: RBD of SARS-CoV-2 spike protein / hACE2 receptor (Severe acute respiratory syndrome coronavirus 2, UniProt P0DTC2); assay type: binding; conditions: 100 μg/ml
[5] = system: SARS-CoV-2 spike protein pseudo-typed virions; assay type: cell-based; remark: listed apart in the source
[6] = target: RBD of SARS-CoV-2 spike protein (Severe acute respiratory syndrome coronavirus 2, UniProt P0DTC2); conditions: Jena et al.; cited from earlier work
[7] = system: A549 cells expressing SARS-CoV-2 spike protein / hACE2/A549 cells; assay type: cell-based, human; conditions: 25 μg/ml, 4 h
[8] = system: lysosomal/endosomal pH of A549 cells; experiment: Endosomal/lysosomal pH assay in A549 cells; assay type: cell-based, human; conditions: 5.0-25 μg/ml; control approximately pH=5.0
Experimental: Acridine orange (Thermo Fisher Scientific, Waltham, MA) was added directly to each dish to reach a final concentration of 6.6 μg/ml. The cells were additionally incubated at 37° C. with 5% CO2 for 20 min. and washed three times with 1×PBS. Live Cell Imaging Solution (LCIS) (Thermo Fisher Scientific, Waltham, MA) was added to the wells, and images were taken using a Zeiss Axio Observer A1 fluorescence microscope with a 40× magnification. […] Results are expressed as a percentage of polyphenol-free control (mean+/−SD, n=3).
A concurrent experiment was performed using pHrodo™ Green AM Intracellular pH Indicator (Thermo Fisher Scientific, Waltham, MA) according to the manufacturer's protocol. […] Next, 10 μl of the pHrodo™ Green AM dye was added to 100 μl of PowerLoad™ to facilitates uniform cellular loading of AM esters, and the whole dye solution was transferred into 10 ml of LCIS. […] The plate was incubated for 30 min. at 37° C., washed again with LCIS, and fluorescence was measured at Ex/Em=509/533 nm wavelength using a spectrofluorometer (Tecan Group Ltd, Switzerland). pH identification was performed based on standard curve, using an Intracellular pH Calibration Buffer Kit according to the manufacturer's protocol (Thermo Fisher Scientific, Waltham, MA). […] Next, the fluorescence was measured Ex/Em=509/533 nm wavelength. […]

T1 sequence (Q9BYF1 18-805): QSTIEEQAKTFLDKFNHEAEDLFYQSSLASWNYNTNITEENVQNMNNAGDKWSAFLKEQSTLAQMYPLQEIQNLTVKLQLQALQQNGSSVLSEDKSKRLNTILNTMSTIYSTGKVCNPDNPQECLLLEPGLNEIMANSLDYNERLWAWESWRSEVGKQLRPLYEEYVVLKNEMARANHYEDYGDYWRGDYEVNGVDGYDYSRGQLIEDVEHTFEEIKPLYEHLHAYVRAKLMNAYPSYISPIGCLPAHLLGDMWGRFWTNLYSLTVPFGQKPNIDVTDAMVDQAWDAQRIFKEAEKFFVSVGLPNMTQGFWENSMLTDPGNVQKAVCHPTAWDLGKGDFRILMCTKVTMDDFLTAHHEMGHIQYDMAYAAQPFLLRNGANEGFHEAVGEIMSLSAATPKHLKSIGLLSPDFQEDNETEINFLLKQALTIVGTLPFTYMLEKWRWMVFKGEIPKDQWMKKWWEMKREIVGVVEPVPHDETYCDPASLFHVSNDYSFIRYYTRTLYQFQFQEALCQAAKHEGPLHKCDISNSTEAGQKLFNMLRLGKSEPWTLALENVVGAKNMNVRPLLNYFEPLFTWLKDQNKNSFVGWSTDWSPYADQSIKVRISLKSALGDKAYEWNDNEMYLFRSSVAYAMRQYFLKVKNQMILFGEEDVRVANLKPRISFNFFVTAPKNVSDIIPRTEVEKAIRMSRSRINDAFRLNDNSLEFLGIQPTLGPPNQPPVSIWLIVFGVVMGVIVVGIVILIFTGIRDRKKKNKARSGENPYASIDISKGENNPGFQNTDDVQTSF

Row | Compound | cathepsin L expression at protein level (cathepsin L) | binding affinity to hACE2 (hACE2 [1]) | concentration showing binding efficacy to ACE2 (hACE2 [2]) | binding of pseudo-typed virions to hACE2/A549 [3] | rank of inhibitory effect among 56 polyphenols and plant extracts [4] | concentration from which significant inhibition was seen [5] | binding affinity to viral spike protein [6] | direct binding to ACE2 (hACE2 [2]) | decrease of fusion [7] | lysosomal/endosomal pH [8]
1 | COc1cc(/C=C/C(=O)CC(=O)/C=C/c2ccc(O)c(OC)c2)ccc1O [Curcumin] | neither brazilin nor curcumin downregulated cathepsin L expression | -8.9 kcal/mol | 10 to 25 µg/mL | inhibit, in dose-dependent fashion | highest inhibitory effect | ≥ 5.0 µg/mL | -10.5 kcal/mol |  |  | 
2 | Oc1ccc2c(c1)OC[C@]1(O)Cc3cc(O)c(O)cc3[C@H]21 [Brazilin] | neither brazilin nor curcumin downregulated cathepsin L expression |  |  | inhibit, in dose-dependent fashion | highest inhibitory effect |  |  | does not bind to ACE2 directly | 40% | 
3 | theaflavin-3,3′-digallate [TF-3] |  |  |  | inhibit, in dose-dependent fashion |  |  |  |  |  | 5.5-6.0 pH
4 | catechin |  | -7.8 kcal/mol |  |  |  |  | -7.9 kcal/mol |  |  | 
